Literature values in patent US6281194A, “Cycloalkyl inhibitors of protein farnesyltransferase” (Warner-Lambert Company, priority 1999, dated 2001).

How the values were obtained:
[1] = test system: EJ-1 human bladder carcinoma, HT1080 human fibrosarcoma and human colon carcinoma xenografts; conditions: 100 mg/kg, nude mice; cited from earlier work
[2] = test system: mammary and salivary carcinomas; conditions: daily administration; cited from earlier work
[3] = test system: human lung carcinoma with K-ras mutation and p53 deletion; conditions: nude mice; cited from earlier work

COC(=O)[C@H](CCSC)NC(=O)[C@H](/C=C\[C@@H](/C=C/[C@@H](N)CS)C(C)C)Cc1ccccc1 [Example B1086]
tumor growth (in words) [1]: inhibit tumor growth

CC[C@H](C)[C@@H](CO[C@@H](Cc1ccccc1)C(=O)N[C@@H](CCS(C)(=O)=O)C(=O)OC(C)C)NC[C@@H](N)CS [L-744,832]
tumor regression (in words) [2]: caused tumor regression

CSCC[C@H](NC(=O)c1ccc(NC[C@@H](N)CS)cc1-c1ccccc1)C(=O)O [FTI276]
tumor growth (in words) [3]: selectively block tumor growth
